Values of other authors, collected in paper PMC10544575, “Inhibitory mechanism of vortioxetine on CYP450 enzymes in human and rat liver microsomes” (Frontiers in Pharmacology, 2023).

What was measured:
Settings in all cases: in vitro; ref Wójcikowski et al., 2020; cited from earlier work
CYP1A2 = test system: CYP1A2; design: method as in Wójcikowski et al., 2020
CYP2D6 = CYP2D6 (Homo sapiens, UniProt P10635); design: 0.20 mg/mL HLMs or 0.20 mg/mL RLMs; from tissue; host or cells: human liver microsomes; method as in Wójcikowski et al., 2020
CYP3A4 = CYP3A4 (Homo sapiens, UniProt P08684); design: 0.20 mg/mL HLMs or 0.20 mg/mL RLMs; from tissue; host or cells: human liver microsomes; method as in Wójcikowski et al., 2020
Chain of CYP3A4 (P08684 whole entry): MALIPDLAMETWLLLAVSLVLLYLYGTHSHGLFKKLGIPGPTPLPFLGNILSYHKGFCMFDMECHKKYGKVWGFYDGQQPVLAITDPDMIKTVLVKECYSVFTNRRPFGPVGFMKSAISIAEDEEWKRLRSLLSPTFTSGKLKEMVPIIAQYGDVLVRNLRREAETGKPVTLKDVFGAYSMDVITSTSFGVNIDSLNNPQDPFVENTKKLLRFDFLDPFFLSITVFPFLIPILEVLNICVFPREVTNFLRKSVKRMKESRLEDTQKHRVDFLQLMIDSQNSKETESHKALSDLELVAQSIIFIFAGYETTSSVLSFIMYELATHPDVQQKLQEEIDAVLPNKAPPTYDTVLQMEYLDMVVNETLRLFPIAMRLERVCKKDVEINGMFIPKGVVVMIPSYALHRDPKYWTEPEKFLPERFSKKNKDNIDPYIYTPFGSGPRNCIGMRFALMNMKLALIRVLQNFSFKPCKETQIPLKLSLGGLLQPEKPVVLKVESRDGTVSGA

Chain of CYP2D6 (P10635 whole entry): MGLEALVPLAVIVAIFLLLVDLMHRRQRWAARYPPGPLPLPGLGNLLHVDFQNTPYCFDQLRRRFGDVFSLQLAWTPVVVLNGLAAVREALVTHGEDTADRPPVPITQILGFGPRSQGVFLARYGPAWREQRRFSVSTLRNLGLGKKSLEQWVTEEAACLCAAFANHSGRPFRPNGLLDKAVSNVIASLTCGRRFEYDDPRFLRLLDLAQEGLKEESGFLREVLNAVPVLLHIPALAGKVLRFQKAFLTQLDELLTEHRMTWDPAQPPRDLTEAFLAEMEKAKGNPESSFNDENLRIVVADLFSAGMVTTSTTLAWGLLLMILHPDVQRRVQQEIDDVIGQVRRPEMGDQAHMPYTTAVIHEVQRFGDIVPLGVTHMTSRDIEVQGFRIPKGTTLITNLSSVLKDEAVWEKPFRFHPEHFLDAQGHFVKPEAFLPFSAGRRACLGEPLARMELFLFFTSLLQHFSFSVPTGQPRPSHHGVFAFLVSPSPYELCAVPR

CN1CC2c3ccccc3Oc3ccc(Cl)cc3C2C1 (stereo not drawn) [asenapine]
significantly inhibited: inhibition of CYP1A2 (CYP1A2) | inhibition of CYP2D6 (CYP2D6) | inhibition of CYP3A4 (CYP3A4)
